pIC50: −log10 of the molar value.
Target: T1, Interstitial collagenase (Homo sapiens) (UniProt P03956)
T1 sequence (whole entry): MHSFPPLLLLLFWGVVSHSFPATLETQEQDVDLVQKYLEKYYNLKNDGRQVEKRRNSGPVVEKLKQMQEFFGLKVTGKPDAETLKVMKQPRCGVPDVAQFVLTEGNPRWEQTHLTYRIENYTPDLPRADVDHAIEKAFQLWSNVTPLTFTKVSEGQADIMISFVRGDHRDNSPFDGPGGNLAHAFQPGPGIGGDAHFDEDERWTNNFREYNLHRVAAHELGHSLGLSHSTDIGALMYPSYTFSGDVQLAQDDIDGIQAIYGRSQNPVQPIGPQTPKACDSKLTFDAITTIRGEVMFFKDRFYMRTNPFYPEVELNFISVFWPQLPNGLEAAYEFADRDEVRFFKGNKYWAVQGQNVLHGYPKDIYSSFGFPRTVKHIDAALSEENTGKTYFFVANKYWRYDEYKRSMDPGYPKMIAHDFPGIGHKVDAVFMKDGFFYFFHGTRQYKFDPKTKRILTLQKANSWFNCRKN
Test: Inhibition of type 1 collagenase at 100 uM
Settings: not given; call rule not given here

Structure (SMILES)	inhibition
C[C@H](CS)C(=O)N[C@@H](CSCc1ccc(N(C)C)cc1)C(=O)O	3%

Target: Aminopeptidase N (Homo sapiens) (UniProt P15144)
Test: Inhibition of aminopeptidase M at 100 uM
Settings: not given

Aminopeptidase N (Homo sapiens), sequence (P15144 whole entry): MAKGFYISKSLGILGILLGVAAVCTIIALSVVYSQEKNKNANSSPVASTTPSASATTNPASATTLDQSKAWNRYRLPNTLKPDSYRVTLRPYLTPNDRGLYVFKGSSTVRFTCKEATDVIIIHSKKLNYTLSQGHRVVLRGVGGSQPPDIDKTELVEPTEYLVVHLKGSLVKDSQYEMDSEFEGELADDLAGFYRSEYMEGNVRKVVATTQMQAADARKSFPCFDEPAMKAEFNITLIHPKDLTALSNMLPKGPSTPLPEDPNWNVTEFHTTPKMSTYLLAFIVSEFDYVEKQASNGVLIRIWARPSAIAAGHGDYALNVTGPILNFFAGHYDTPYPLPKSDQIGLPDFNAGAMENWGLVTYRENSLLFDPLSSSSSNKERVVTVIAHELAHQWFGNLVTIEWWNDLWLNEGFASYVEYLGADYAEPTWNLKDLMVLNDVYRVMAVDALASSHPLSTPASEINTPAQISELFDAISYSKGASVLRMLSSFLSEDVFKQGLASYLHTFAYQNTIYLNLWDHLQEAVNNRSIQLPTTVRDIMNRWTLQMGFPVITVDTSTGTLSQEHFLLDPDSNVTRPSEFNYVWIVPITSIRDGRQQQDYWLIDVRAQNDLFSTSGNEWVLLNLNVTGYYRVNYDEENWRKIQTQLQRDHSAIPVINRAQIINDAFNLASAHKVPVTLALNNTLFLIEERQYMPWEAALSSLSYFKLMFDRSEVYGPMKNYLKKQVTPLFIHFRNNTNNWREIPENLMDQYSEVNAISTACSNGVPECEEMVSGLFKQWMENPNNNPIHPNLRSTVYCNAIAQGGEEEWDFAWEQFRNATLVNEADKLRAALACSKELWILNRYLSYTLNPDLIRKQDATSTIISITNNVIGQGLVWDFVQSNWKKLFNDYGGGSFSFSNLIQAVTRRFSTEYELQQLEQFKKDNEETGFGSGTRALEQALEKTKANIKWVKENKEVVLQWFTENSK

Structure (SMILES)	inhibition
C[C@H](CS)C(=O)N[C@@H](CSCc1ccc(N(C)C)cc1)C(=O)O	42%

Target: Collagenase 3 (Homo sapiens, UniProt P45452)
Test: Inhibition of type 3 collagenase
Settings: not given

Structure (SMILES)	IC50
C[C@H](CS)C(=O)N[C@@H](CSCc1ccc(N(C)C)cc1)C(=O)O	Not Active

Target: Angiotensin-converting enzyme (Homo sapiens, UniProt P12821)
Test: Inhibition of angiotensin-converting enzyme in whole blood by HPLC
Format: tissue-based
Settings: not given

Angiotensin-converting enzyme, sequence (P12821 whole entry): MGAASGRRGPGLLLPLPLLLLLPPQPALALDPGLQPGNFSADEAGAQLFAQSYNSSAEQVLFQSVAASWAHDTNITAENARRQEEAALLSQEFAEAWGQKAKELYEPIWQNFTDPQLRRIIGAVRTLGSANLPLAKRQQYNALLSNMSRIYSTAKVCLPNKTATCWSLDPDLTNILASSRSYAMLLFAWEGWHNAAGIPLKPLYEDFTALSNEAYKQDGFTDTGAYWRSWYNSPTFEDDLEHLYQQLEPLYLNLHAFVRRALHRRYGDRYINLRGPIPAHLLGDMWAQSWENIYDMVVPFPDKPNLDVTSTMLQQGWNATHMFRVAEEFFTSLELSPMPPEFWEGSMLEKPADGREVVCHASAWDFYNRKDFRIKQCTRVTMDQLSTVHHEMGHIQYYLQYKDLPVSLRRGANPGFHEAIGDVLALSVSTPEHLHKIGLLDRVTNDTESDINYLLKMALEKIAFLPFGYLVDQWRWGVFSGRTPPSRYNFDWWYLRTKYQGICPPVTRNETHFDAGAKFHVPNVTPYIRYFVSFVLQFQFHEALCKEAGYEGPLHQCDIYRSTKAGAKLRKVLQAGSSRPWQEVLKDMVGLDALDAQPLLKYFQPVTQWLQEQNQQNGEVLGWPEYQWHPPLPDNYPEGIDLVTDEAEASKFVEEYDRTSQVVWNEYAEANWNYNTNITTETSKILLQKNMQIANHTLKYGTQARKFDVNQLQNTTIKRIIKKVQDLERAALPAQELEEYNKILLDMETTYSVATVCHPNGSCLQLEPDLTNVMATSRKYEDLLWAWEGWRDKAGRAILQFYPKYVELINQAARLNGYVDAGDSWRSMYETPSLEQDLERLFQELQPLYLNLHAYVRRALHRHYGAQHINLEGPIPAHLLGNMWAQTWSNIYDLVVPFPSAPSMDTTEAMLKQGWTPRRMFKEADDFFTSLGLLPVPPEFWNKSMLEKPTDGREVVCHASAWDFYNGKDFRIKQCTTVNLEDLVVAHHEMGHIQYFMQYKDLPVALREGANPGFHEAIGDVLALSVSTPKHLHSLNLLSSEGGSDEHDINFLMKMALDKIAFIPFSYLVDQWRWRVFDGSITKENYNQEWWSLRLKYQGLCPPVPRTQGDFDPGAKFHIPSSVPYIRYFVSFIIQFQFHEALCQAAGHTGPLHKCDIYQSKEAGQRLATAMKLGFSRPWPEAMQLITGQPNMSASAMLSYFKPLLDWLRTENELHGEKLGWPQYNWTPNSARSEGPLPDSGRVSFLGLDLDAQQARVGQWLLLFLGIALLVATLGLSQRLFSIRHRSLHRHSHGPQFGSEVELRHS

Structure (SMILES)	pIC50
C[C@H](CS)C(=O)N[C@@H](CSCc1ccc(C#N)cc1)C(=O)O	6.52
CCOc1ccc(CSC[C@H](NC(=O)[C@H](C)CS)C(=O)O)cc1	6.47
C[C@H](CS)C(=O)N[C@@H](CSCc1ccc(C2CCCCC2)cc1)C(=O)O	5.40
CC(C)c1ccc(C(C)SC[C@H](NC(=O)[C@H](C)CS)C(=O)O)cc1 (stereo partly drawn)	6.70
CC(C)c1ccc(CSC[C@H](NC(=O)[C@H](C)CS)C(=O)O)cc1	6.52
C[C@H](CS)C(=O)N[C@@H](CSCc1ccc(S(C)(=O)=O)cc1)C(=O)O	6.52
C[C@H](CS)C(=O)N[C@@H](CSCc1ccc(I)cc1)C(=O)O	6.85
CC(C)c1ccc(C(C)(C)SC[C@H](NC(=O)[C@H](C)CS)C(=O)O)cc1	6.59
C[C@H](CS)C(=O)N[C@@H](CSCc1ccc(F)cc1)C(=O)O	7.00
C[C@H](CS)C(=O)N[C@@H](CSCc1ccc(OC(F)(F)F)cc1)C(=O)O	6.59
CCCc1ccc(CSC[C@H](NC(=O)[C@H](C)CS)C(=O)O)cc1	6.68
C[C@H](CS)C(=O)N[C@@H](CSCc1ccc(C(C)(C)C)cc1)C(=O)O	6.89
COc1ccc(CSC[C@H](NC(=O)[C@H](C)CS)C(=O)O)cc1	7.00
CCC(SC[C@H](NC(=O)[C@H](C)CS)C(=O)O)c1ccc(C(C)C)cc1 (stereo partly drawn)	6.47
C[C@H](CS)C(=O)N[C@@H](CSCc1ccc(N(C)C)cc1)C(=O)O	6.28
CCc1ccc(CSC[C@H](NC(=O)[C@H](C)CS)C(=O)O)cc1	7.68
CSc1ccc(CSC[C@H](NC(=O)[C@H](C)CS)C(=O)O)cc1	6.52

Structure (SMILES)	pIC50
CCCCC(SC[C@H](NC(=O)[C@H](C)CS)C(=O)O)c1ccc(C(C)C)cc1 (stereo partly drawn)	5.44
Cc1ccc(CSC[C@H](NC(=O)[C@H](C)CS)C(=O)O)cc1	6.62
C[C@H](CS)C(=O)N[C@@H](CSC(C)(C)c1ccc(C2CCCCC2)cc1)C(=O)O	5.52
CC(C)c1ccc(CSC(C)(C)[C@H](NC(=O)[C@H](C)CS)C(=O)O)cc1	< 5.00
C[C@H](CS)C(=O)N[C@@H](CSCc1ccc(C(F)(F)F)cc1)C(=O)O	6.47
C[C@H](CS)C(=O)N[C@@H](CSCc1ccc(Oc2ccccc2)cc1)C(=O)O	6.43
C[C@H](CS)C(=O)N[C@@H](CSC(c1ccccc1)c1ccc(C2CCCCC2)cc1)C(=O)O (stereo partly drawn)	< 5.00
CCCC(SC[C@H](NC(=O)[C@H](C)CS)C(=O)O)c1ccc(C(C)C)cc1 (stereo partly drawn)	6.38
CC(C)c1ccc(C(SC[C@H](NC(=O)[C@H](C)CS)C(=O)O)c2ccccc2)cc1 (stereo partly drawn)	5.77
C[C@H](CS)C(=O)N[C@@H](CSCc1ccc(Cl)cc1)C(=O)O	6.60
C[C@H](CS)C(=O)N[C@@H](CSCc1ccccc1)C(=O)O	7.47
CC(C)c1ccc(C(SC[C@H](NC(=O)[C@H](C)CS)C(=O)O)C(C)C)cc1 (stereo partly drawn)	6.37
C[C@H](CS)C(=O)N[C@@H](CSCc1ccc(Br)cc1)C(=O)O	6.55
C[C@H](CS)C(=O)N[C@@H](CSCc1ccc([N+](=O)[O-])cc1)C(=O)O	6.49
CCN(CC)c1ccc(CSC[C@H](NC(=O)[C@H](C)CS)C(=O)O)cc1	5.34
C[C@H](CS)C(=O)N[C@@H](CSCc1ccc(-c2ccccc2)cc1)C(=O)O	6.55

Target: T2, Leukotriene A-4 hydrolase (Cavia porcellus, UniProt P19602)
T2 sequence (P19602 whole entry): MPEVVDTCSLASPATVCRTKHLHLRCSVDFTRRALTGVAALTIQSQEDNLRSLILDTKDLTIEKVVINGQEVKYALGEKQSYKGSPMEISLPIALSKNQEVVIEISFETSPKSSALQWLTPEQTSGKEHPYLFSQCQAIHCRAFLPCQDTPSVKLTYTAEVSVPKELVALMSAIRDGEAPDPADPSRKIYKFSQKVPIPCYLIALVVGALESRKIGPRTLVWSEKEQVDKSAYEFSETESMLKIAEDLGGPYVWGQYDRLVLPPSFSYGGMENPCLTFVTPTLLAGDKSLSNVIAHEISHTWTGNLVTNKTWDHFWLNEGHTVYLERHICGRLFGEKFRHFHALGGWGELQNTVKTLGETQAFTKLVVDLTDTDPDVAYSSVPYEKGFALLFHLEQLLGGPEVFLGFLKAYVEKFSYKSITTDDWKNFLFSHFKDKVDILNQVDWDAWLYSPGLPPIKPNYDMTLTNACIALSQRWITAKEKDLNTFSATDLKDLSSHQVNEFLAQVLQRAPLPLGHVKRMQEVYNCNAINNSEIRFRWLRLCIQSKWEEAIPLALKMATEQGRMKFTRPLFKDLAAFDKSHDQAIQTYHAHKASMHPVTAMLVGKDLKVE
Test: Inhibition of LTA4 hydrolase in guinea pig lung assessed as inhibition of LTB4 production
Settings: read-out: IC50

Structure (SMILES)	pIC50
C[C@H](CS)C(=O)N[C@@H](CSCc1ccc(C#N)cc1)C(=O)O	6.28
CCOc1ccc(CSC[C@H](NC(=O)[C@H](C)CS)C(=O)O)cc1	6.19
CC(C)c1ccc(C(C)(C)SC[C@H](NC(=O)[C@H](C)CS)C(=O)O)cc1	7.10
C[C@H](CS)C(=O)N[C@@H](CSCc1ccc(F)cc1)C(=O)O	< 5.00
C[C@H](CS)C(=O)N[C@@H](CSCc1ccc(OC(F)(F)F)cc1)C(=O)O	6.40
COc1ccc(CSC[C@H](NC(=O)[C@H](C)CS)C(=O)O)cc1	5.62
C[C@H](CS)C(=O)N[C@@H](CSCc1ccc(N(C)C)cc1)C(=O)O	6.57
C[C@H](S)C(=O)N[C@@H](CSCc1ccc(N(C)C)cc1)C(=O)O	< 5.00
C[C@@H](S)C(=O)N[C@@H](CSCc1ccc(N(C)C)cc1)C(=O)O	< 5.00
CCCCC(SC[C@H](NC(=O)[C@H](C)CS)C(=O)O)c1ccc(C(C)C)cc1 (stereo partly drawn)	6.29
Cc1ccc(CSC[C@H](NC(=O)[C@H](C)CS)C(=O)O)cc1	5.14
CC(S)CC(=O)N[C@@H](CSCc1ccc(N(C)C)cc1)C(=O)O (stereo partly drawn)	5.13
CC(C)c1ccc(CSC(C)(C)[C@H](NC(=O)[C@H](C)CS)C(=O)O)cc1	< 5.00
C[C@H](CS)C(=O)N[C@@H](CSCc1ccc(Oc2ccccc2)cc1)C(=O)O	5.77
C[C@H](CS)C(=O)N[C@@H](CSC(c1ccccc1)c1ccc(C2CCCCC2)cc1)C(=O)O (stereo partly drawn)	6.68
CN(C)c1ccc(CSC[C@H](NC(=O)CCCS)C(=O)O)cc1	< 5.00
CCCC(SC[C@H](NC(=O)[C@H](C)CS)C(=O)O)c1ccc(C(C)C)cc1 (stereo partly drawn)	6.74
C[C@H](CS)C(=O)N[C@@H](CSCc1cccc(N(C)C)c1)C(=O)O	< 5.00
CC(C)c1ccc(C(SC[C@H](NC(=O)[C@H](C)CS)C(=O)O)c2ccccc2)cc1 (stereo partly drawn)	7.04
C[C@H](CS)C(=O)N[C@@H](CSCc1ccc(Cl)cc1)C(=O)O	5.77
C[C@H](CS)C(=O)N[C@@H](CSCc1ccccc1)C(=O)O	< 5.00
CC(C)c1ccc(C(SC[C@H](NC(=O)[C@H](C)CS)C(=O)O)C(C)C)cc1 (stereo partly drawn)	6.28
C[C@H](CS)C(=O)N[C@@H](CSCc1ccc(Br)cc1)C(=O)O	6.21
C[C@H](CS)C(=O)N[C@@H](CSCc1ccc([N+](=O)[O-])cc1)C(=O)O	5.31
CN(C)c1ccc(CSC[C@H](NC(=O)CCS)C(=O)O)cc1	< 5.00
C[C@H](CS)C(=O)N[C@H](CSCc1ccc(N(C)C)cc1)C(=O)O	< 5.00
C[C@H](CS)C(=O)N[C@@H](CSCc1ccc(-c2ccccc2)cc1)C(=O)O	6.22
C[C@H](CS)C(=O)N[C@@H](CCSCc1ccc(N(C)C)cc1)C(=O)O	< 5.00
CN(C)c1ccc(CSC[C@H](NC(=O)CS)C(=O)O)cc1	6.33

Same assay, conditions: read-out: pIC50 (converted)

Structure (SMILES)	IC50
CCOc1ccc(CSC[C@H](NC(=O)[C@H](C)CS)C(=O)O)cc1	0.64 µM
C[C@H](CS)C(=O)N[C@@H](CSCc1ccc(C2CCCCC2)cc1)C(=O)O	0.079 µM
CC(C)c1ccc(CSC[C@H](NC(=O)[C@H](C)CS)C(=O)O)cc1	0.2 µM
C[C@H](CS)C(=O)N[C@@H](CSCc1ccc(I)cc1)C(=O)O	0.015 µM
C[C@H](CS)C(=O)N[C@@H](CSCc1ccc(F)cc1)C(=O)O	> 10 µM
CCCc1ccc(CSC[C@H](NC(=O)[C@H](C)CS)C(=O)O)cc1	0.072 µM
C[C@H](CS)C(=O)N[C@@H](CSCc1ccc(C(C)(C)C)cc1)C(=O)O	0.024 µM
COc1ccc(CSC[C@H](NC(=O)[C@H](C)CS)C(=O)O)cc1	2.4 µM
C[C@H](CS)C(=O)N[C@@H](CSCc1ccc(N(C)C)cc1)C(=O)O	0.27 µM
CCc1ccc(CSC[C@H](NC(=O)[C@H](C)CS)C(=O)O)cc1	0.28 µM
Cc1ccc(CSC[C@H](NC(=O)[C@H](C)CS)C(=O)O)cc1	7.2 µM
C[C@H](CS)C(=O)N[C@@H](CSCc1ccc(C(F)(F)F)cc1)C(=O)O	0.14 µM
C[C@H](CS)C(=O)N[C@@H](CSCc1ccc(Oc2ccccc2)cc1)C(=O)O	1.7 µM
C[C@H](CS)C(=O)N[C@@H](CSCc1ccc(Cl)cc1)C(=O)O	1.7 µM
C[C@H](CS)C(=O)N[C@@H](CSCc1ccc(Br)cc1)C(=O)O	0.61 µM
C[C@H](CS)C(=O)N[C@@H](CSCc1ccc(-c2ccccc2)cc1)C(=O)O	0.0794 µM

Target: T3, Endothelin-converting enzyme 1 (Homo sapiens) (UniProt P42892)
T3 sequence (whole entry): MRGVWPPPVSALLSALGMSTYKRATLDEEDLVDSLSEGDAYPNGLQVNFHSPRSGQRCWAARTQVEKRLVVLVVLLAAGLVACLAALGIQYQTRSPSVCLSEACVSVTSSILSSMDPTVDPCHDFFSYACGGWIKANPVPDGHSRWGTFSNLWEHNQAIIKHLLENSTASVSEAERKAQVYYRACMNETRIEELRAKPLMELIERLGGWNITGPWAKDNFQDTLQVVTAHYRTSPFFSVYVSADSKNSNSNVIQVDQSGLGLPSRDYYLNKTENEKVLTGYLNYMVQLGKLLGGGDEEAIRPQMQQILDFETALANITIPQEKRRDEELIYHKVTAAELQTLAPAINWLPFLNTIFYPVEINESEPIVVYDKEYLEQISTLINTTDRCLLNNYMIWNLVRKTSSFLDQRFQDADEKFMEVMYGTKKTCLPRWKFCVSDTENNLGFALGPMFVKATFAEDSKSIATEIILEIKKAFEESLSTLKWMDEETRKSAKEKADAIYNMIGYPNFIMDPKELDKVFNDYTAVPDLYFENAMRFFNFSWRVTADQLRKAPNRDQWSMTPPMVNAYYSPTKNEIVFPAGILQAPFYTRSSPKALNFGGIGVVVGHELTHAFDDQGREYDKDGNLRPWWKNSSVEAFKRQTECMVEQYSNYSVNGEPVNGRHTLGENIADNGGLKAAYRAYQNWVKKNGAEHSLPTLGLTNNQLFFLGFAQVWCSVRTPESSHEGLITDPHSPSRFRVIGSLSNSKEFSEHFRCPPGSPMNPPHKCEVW
Test: Inhibition of endothelin-converting enzyme 1 at 100 uM
Settings: not given

Structure (SMILES)	inhibition
C[C@H](CS)C(=O)N[C@@H](CSCc1ccc(N(C)C)cc1)C(=O)O	8%

Target: Neprilysin (Homo sapiens) (UniProt P08473)
Test: Inhibition of endopeptidase 24.11 at 100 uM
Settings: not given

Neprilysin (Homo sapiens), sequence (P08473 whole entry): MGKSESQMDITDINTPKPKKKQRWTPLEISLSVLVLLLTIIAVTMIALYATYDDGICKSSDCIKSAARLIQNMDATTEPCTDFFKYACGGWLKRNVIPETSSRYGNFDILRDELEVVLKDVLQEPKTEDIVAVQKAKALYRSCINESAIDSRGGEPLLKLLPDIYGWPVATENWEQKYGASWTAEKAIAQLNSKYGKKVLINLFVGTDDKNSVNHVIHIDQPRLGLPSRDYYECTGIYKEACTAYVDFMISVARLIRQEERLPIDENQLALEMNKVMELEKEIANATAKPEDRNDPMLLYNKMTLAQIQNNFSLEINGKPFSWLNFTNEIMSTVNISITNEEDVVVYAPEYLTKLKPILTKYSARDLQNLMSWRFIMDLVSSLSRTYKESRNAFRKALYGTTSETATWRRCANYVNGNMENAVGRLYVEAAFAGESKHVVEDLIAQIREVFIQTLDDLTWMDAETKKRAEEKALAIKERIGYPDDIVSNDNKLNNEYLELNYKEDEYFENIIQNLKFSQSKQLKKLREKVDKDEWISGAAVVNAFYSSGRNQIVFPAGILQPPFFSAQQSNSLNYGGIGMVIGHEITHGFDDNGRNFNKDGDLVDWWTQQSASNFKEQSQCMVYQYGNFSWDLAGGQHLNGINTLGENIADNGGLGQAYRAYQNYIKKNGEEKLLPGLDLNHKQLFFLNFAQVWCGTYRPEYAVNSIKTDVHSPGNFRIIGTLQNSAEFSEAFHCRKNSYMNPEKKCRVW

Structure (SMILES)	inhibition
C[C@H](CS)C(=O)N[C@@H](CSCc1ccc(N(C)C)cc1)C(=O)O	16%

Reference: ChEMBL document CHEMBL1154514, “Synthesis and biological evaluation of N-mercaptoacylcysteine derivatives as leukotriene A4 hydrolase inhibitors” (Bioorg Med Chem Lett, 2009)
